Laboratory results taken from patent US6458840B2, “Use of valproic acid analog for the treatment and prevention of migraine and affective illness” (American Biogenetic Sciences, Inc., priority 1998, dated 2002).
“And” between values parts separate entries of the source, which are not always exact repeats. Equal values may be shown once. “Also recorded” adds a separate entry of the source.

Key:
[1] = Open field observation, behavioral rating of adverse effects; format: in vivo, rat; details: for antaxia (1-6) / hypolocomotion (1-3) / muscle relaxation (1-3): 13′ after application, mean (X)
Method: Tests included open field observations, rotarod test and body temperature. Tests were always performed in the same manner in control and drug experiments at two different times, just before application of drug or vehicle and 13 minutes after application.
In addition to these quantitative estimations of neurological deficit, behavioral alterations observed after administration of 2-propyl-4-hexynoic acid and valproate noted in the cage and by placing the animals in an open field of 90-100 cm diameter. Muscle tone was estimated by palpation of the abdomen. The extent of deficits in behavior after administration of the compounds was determined by a rating system (Loscher et al. 1987). In short, animals were taken out of the cage, placed in an open field, observed for about 1 minute and rated separately for ataxia, abducted hindlimbs, reduced righting, flat body posture, circling, Straub tail, piloerection, hypolocomotion and hyperlocomotion (abdominal muscle tone was evaluated by palpation at the end of the period of observation). All other parameters except ataxia were scored from 0 to 3: 0-absent; 1-equivocal; 2-present; 3- intense. For ataxia (06): 1 -slight ataxia in hind-legs (tottering of the hind quarters); 2-more pronounced ataxia with dragging of hind legs; 3-further increase of ataxia and more pronounced dragging of hind legs; 4-marked ataxia, animals lose balance during forward locomotion; 5- very marked ataxia with frequent loss of balance during forward locomotion; 6-permanent loss of righting reflexes, but animal still attempts to move forward. Rectal body temperature was measured by an electronic thermometer. Body weight of the animals was recorded once daily before drug injection. Significance of differences in behavior between pre-drug and post-drug data determined in the same group of animals was calculated by the Wilcoxon signed rank test for paired replicates and for body temperature by Student's paired t-test (SigmaStat for Windows, version 1.0). Differences in body temperature were always compared only within the experimental day with the pre-drug time as control to one post-drug time.

[2] = system: amygdala-kindled seizures; assay: Amygdala-kindling in fully kindled rats (anti-seizure effects); format: in vivo, rat; details: for afterdisch.dur.1 (ADD1) / afterdisch.dur.2 (ADD2) / afterdisch.thresh. (ADT) / seizure duration1 (SD1) / seizure duration2 (SD2) / seizure severity (SS): 15 min pretreatment, mean (X); for seizure severity (SS): Racine score; for increase of afterdischarge threshold: versus pre-drug control
Method: For implantation of stimulation and recording electrodes, rats were anesthetized with chloral hydrate (360 mg/kg i.p.) and received stereotaxic implantation (according to the surgery methods described in the atlas of Paxinos and Watson [1986]) of one bipolar electrode in the right basolateral amygdala. Coordinates for electrode implantation were AP-2.2 mm, L-4.8 mm, V-8.5 mm. All coordinates were measured from bregma. Skull screws served as the indifferent reference electrode. The electrode assembly was attached to the skull by dental acrylic cement. After a postoperative period of 2 weeks, constant current stimulations (500 μA, 1 ms, monophasic square-wave pulses, 50/s for 1 s) were delivered to the amygdala at intervals of 1/day until ten stage 5 seizures were elicited. The electrical susceptibility of the stimulated region (threshold for induction of afterdischarges) was recorded on the first day of the experiment (initial afterdischarge threshold) as well as after kindling acquisition (with an interval of at least 4 days after the tenth stage 5 seizure) using an ascending staircase procedure. The initial current intensity was 1 OμA, and the current intensity was increased in steps of about 20% of the previous current at intervals of 1 min until an afterdischarge of at least 3 s duration was elicited. […] In addition to afterdischarge threshold, the following parameters of kindled seizures were measured in fully-kindled rats after stimulation with the afterdischarge threshold current: seizure severity was classified according to Racine (1972): 1 -immobility, eye closure, twitching of vibrissae, sniffing, facial clonus; 2-head nodding associated with more severe facial clonus; 3-clonus of one forelimb; 4-rearing, often accompanied by bilateral forelimb clonus; 5-rearing with loss of balance and falling accompanied by generalized clonic seizures. Seizure duration 1 (SD 1) was the duration of limbic (stage 1-2) and/or motor seizures (stage 3-5). Seizure duration 2 (SD 2) included the time of limbic and/or motor seizures plus the adjacent time of immobility. Afterdischarge duration 1 (ADD 1) was the time of spikes in the EEG recorded from the site of stimulation with a frequency of at least 1 /s. Afterdischarge duration 2 (ADD 2) was the total time of spikes occurring in the EEG including those, which followed the ADD 1 with lower frequency and amplitude.
The anti-seizure effects of 2-propyl-4-hexynoic acid and valproate in fully kindled rats were determined in a group of 8-9 rats (no. 784, 785, 787, 788, 789, 790 [had to be taken out of the trial, because of loss of electrodes], 791, 792, 793) with reproducible stage 5 seizures.
Drugs were injected 15 min prior to stimulation intraperitoneally. Control experiments were always performed 2-3 days before each drug experiment. For control determinations, rats received i.p. injections of vehicle (saline) with the pretreatment time of the respective drug experiment. For all drug experiments, at least 4 days were interposed between 2 drug injections in order to avoid alterations in drug potency due to cumulation or tolerance.
The significance of differences between pre-drug control recordings and recordings after drug injection was calculated by the Wilcoxon signed rank test for paired replicates (SigmaStat for Windows, version 1.0).

[3] = system: PTZ induced seizures; details: literature / earlier application; cited from earlier work
[4] = 200 mg/kg i.p., listed as valproate
[5] = 100 mg/kg i.p., listed as valproate

Structure (SMILES): CCCC(CCC)C(=O)O [Valproate, valproic acid]
- alterations in behavior, in words ([1]; 100 mg/kg i.p.): No alterations
- further adverse effects, in words ([1]; 200 mg/kg i.p.): wet dog shakes
- antaxia (1-6) ([1]; 200 mg/kg i.p.): 2.75 score
- hypolocomotion (1-3) ([1]; 200 mg/kg i.p.): 1.00 score
- muscle relaxation (1-3) ([1]; 200 mg/kg i.p.): 2.00 score
- antaxia (1-6) [1, 4]: 2.8 score
- hypolocomotion (1-3) [1, 4]: 1.0 score
- muscle relaxation (1-3) [1, 4]: 2.0 score
- afterdisch.dur.1 (ADD1) ([2]; 50 mg/kg i.p.): 76.67 s
- afterdisch.dur.2 (ADD2) ([2]; 50 mg/kg i.p.): 76.67 s
- afterdisch.thresh. (ADT) ([2]; 50 mg/kg i.p.): 60.44 μA
- seizure duration1 (SD1) ([2]; 50 mg/kg i.p.): 72.22 s
- seizure duration2 (SD2) ([2]; 50 mg/kg i.p.): 231.67 s
- seizure severity (SS) ([2]; 50 mg/kg i.p.): 4.33 score
- increase of afterdischarge threshold ([2]; 50 mg/kg i.p.): 109%
- afterdisch.dur.1 (ADD1) ([2]; 75 mg/kg i.p.): 67.25 s
- afterdisch.dur.2 (ADD2) ([2]; 75 mg/kg i.p.): 67.25 s
- afterdisch.thresh. (ADT) ([2]; 75 mg/kg i.p.): 73.13 μA
- seizure duration1 (SD1) ([2]; 75 mg/kg i.p.): 54.00 s
- seizure duration2 (SD2) ([2]; 75 mg/kg i.p.): 250.75 s
- seizure severity (SS) ([2]; 75 mg/kg i.p.): 4.13 score
- increase of afterdischarge threshold ([2]; 75 mg/kg i.p.): 77%
- afterdisch.dur.1 (ADD1) ([2]; 100 mg/kg i.p.): 20.00 s
- afterdisch.dur.2 (ADD2) ([2]; 100 mg/kg i.p.): 20.00 s
- afterdisch.thresh. (ADT) ([2]; 100 mg/kg i.p.): 151.67 μA
- seizure duration1 (SD1) ([2]; 100 mg/kg i.p.): 18.22 s
- seizure duration2 (SD2) ([2]; 100 mg/kg i.p.): 43.44 s
- seizure severity (SS) ([2]; 100 mg/kg i.p.): 3.00 score
- seizure severity (SS) [2, 5]: 3.0 score
- afterdisch.dur.2 (ADD2) [2, 5]: 20 s
- seizure duration1 (SD1) [2, 5]: 18 s
- increase of afterdischarge threshold ([2]; 100 mg/kg i.p.): 319%
- afterdisch.dur.1 (ADD1) ([2]; 200 mg/kg i.p.): 8.75 s
- afterdisch.dur.2 (ADD2) ([2]; 200 mg/kg i.p.): 8.75 s
- afterdisch.thresh. (ADT) ([2]; 200 mg/kg i.p.): 496.25 μA
- seizure duration1 (SD1) ([2]; 200 mg/kg i.p.): 8.75 s
- seizure duration2 (SD2) ([2]; 200 mg/kg i.p.): 8.75 s
- seizure severity (SS) ([2]; 200 mg/kg i.p.): 1.63 score
- seizure severity (SS) [2, 4]: 1.6 score
- afterdisch.dur.2 (ADD2) [2, 4]: 9 s
- seizure duration1 (SD1) [2, 4]: 9 s
- increase of afterdischarge threshold ([2]; 200 mg/kg i.p.): 970%
- effects against amygdala-kindled seizures, in words ([2]; all doses tested: 50, 75, 100, 200 mg/kg i.p.): significant effects against amygdala-kindled seizures

Structure (SMILES): CC#CCC(CCC)C(=O)O (stereo not shown) [2-propyl-4-hexynoic acid, 2-n-propyl-4-hexynoic acid]
- antaxia (1-6) ([1]; 200 mg/kg i.p.): 1.5 score
- hypolocomotion (1-3) ([1]; 200 mg/kg i.p.): 1.4 score
- muscle relaxation (1-3) ([1]; 200 mg/kg i.p.): 1.4 score
- BEHAVIOR (score) antaxia (1-6) ([1]; 200 mg/kg, 13′, mean of 8 rats): 1.50 score
- BEHAVIOR (score) hypolocomotion (1-3) ([1]; 200 mg/kg, 13′, mean of 8 rats): 1.38 score
- BEHAVIOR (score) muscle relaxation (1-3) ([1]; 200 mg/kg, 13′, mean of 8 rats): 1.38 score
- BEHAVIOR (score) red. righting (1-3) ([1]; 200 mg/kg, 13′, mean of 8 rats): 0.75 score
- adverse effects, in words ([1]; doses 50, 75, 100, 200 mg/kg i.p.): only observed at the highest dose of 200 mg/kg and were milder than with valproate
- effects against amygdala-kindled seizures, in words ([2]; 50 mg/kg i.p.): no significant effects
- afterdisch.dur.1 (ADD1) ([2]; 50 mg/kg i.p.): 93.11 s
- afterdisch.dur.2 (ADD2) ([2]; 50 mg/kg i.p.): 93.11 s
- afterdisch.thresh. (ADT) ([2]; 50 mg/kg i.p.): 37.33 μA
- seizure duration1 (SD1) ([2]; 50 mg/kg i.p.): 78.44 s
- seizure duration2 (SD2) ([2]; 50 mg/kg i.p.): 234.33 s
- seizure severity (SS) ([2]; 50 mg/kg i.p.): 4.89 score
- afterdisch.dur.1 (ADD1) ([2]; 75 mg/kg i.p.): 16.25 s
- afterdisch.dur.2 (ADD2) ([2]; 75 mg/kg i.p.): 16 s and 16.25 s
- afterdisch.thresh. (ADT) ([2]; 75 mg/kg i.p.): 88.50 μA
- seizure duration1 (SD1) ([2]; 75 mg/kg i.p.): 16 s and 16.25 s
- seizure duration2 (SD2) ([2]; 75 mg/kg i.p.): 16.25 s
- seizure severity (SS) ([2]; 75 mg/kg i.p.): 2.3 score and 2.25 score
- increase of afterdischarge threshold ([2]; 75 mg/kg i.p.): 109%
- seizure duration1 (SD1) ([2]; 100 mg/kg i.p.): 47 s
- seizure severity (SS) ([2]; 100 mg/kg i.p.): 3.6 score
- increase of afterdischarge threshold ([2]; 100 mg/kg i.p.): 160%
- afterdisch.dur.2 (ADD2) ([2]; 200 mg/kg i.p.): 24 s
- seizure duration1 (SD1) ([2]; 200 mg/kg i.p.): 19 s
- seizure severity (SS) ([2]; 200 mg/kg i.p.): 1.8 score
- increase of afterdischarge threshold ([2]; 200 mg/kg i.p.): 209%
- afterdisch.thresh. (ADT; μA) ([2]; 200 mg/kg, mean (X) of 8 kindled rats, control mean 57.88): 178.75 μA
- seizure severity (SS; score) ([2]; 200 mg/kg, mean of 8 rats, control mean 4.63): 1.75 score
- seizure duration1 (SD1; sec) ([2]; 200 mg/kg, mean of 8 rats, control mean 61.63): 19.25 s
- afterdisch.dur.1 (ADD1;sec) ([2]; 200 mg/kg, mean of 8 rats, control mean 77.25): 23.50 s
- afterdisch.dur.2 (ADD2; sec) ([2]; 200 mg/kg, mean of 8 rats, control mean 88.13): 23.50 s
- seizure duration2 (SD2; sec) ([2]; 200 mg/kg, mean of 8 rats, control mean 197.88): 36.38 s
- antiepileptic effect in PTZ test, in words [3]: effective antiepileptic with a longer duration of activity and greatly reduced sedative and teratogenic effects compared to valproic acid; also recorded: improved antiepileptic compared to valproic acid
